# Reference: ChEMBL document CHEMBL1123417, “New structure-activity relationships of the quinolone antibacterials using the target enzyme. The development and application of a DNA gyrase assay” (J Med Chem, 1986)
# Key:
# Staphylococcus aureus = test: Antibacterial activity against Staphylococcus aureus (H228)
# Pseudomonas aeruginosa = test: Antibacterial activity against Pseudomonas aeruginosa (UI-18)
# Streptococcus pneumoniae = test: Antibacterial activity against Streptococcus pneumoniae (SV-1)
# Klebsiella pneumoniae = test: Antibacterial activity against Klebsiella pneumonia (MGH-2)
# Escherichia coli [1] = test: Antibacterial activity against Escherichia coli (vogel)
# Escherichia coli [2] = test: Antibacterial activity against Escherichia coli (H560)
# [3] = target: DNA gyrase (Escherichia coli) (UniProt P0AES6+P0AES4)
SMILES,MIC (Staphylococcus aureus),MIC (Pseudomonas aeruginosa),MIC (Streptococcus pneumoniae),MIC (Klebsiella pneumoniae),MIC (Escherichia coli [1]),MIC (Escherichia coli [2]),gyrase cleavage conc [3]
CCn1cc(C(=O)O)c(=O)c2cc(F)ccc21,> 100 µg/mL,> 100 µg/mL,> 100 µg/mL,1.6 µg/mL,0.8 µg/mL,25 µg/mL,50 µg/mL
CCn1cc(C(=O)O)c(=O)c2cc(F)c(N3CCSCC3)cc21,0.006 µg/mL,0.8 µg/mL,12.5 µg/mL,0.2 µg/mL,0.1 µg/mL,0.1 µg/mL,5 µg/mL
CCn1cc(C(=O)O)c(=O)c2cc(F)c(N3CCN(CCN)CC3)cc21,12.5 µg/mL,50 µg/mL,50 µg/mL,50 µg/mL,25 µg/mL,25 µg/mL,10 µg/mL
CCn1cc(C(=O)O)c(=O)c2cc(F)c(N3CCSC3)cc21,0.2 µg/mL,3.1 µg/mL,12.5 µg/mL,0.4 µg/mL,0.2 µg/mL,0.2 µg/mL,5 µg/mL
CCn1cc(C(=O)O)c(=O)c2c(N)nc(N3CCCC3)nc21,100 µg/mL,> 100 µg/mL,25 µg/mL,> 100 µg/mL,100 µg/mL,100 µg/mL,100 µg/mL
CCOC(=O)N1CCN(c2nc3c(cc2F)c(=O)c(C(=O)O)cn3CC)CC1,3.1 µg/mL,200 µg/mL,100 µg/mL,50 µg/mL,25 µg/mL,50 µg/mL,18 µg/mL
CCn1cc(C(=O)O)c(=O)c2cc(F)c(SCCN)cc21,25 µg/mL,3.1 µg/mL,25 µg/mL,1.6 µg/mL,0.8 µg/mL,3.1 µg/mL,5 µg/mL
CCn1cc(C(=O)O)c(=O)cc1/C=C/c1ccsc1,> 100 µg/mL,> 100 µg/mL,> 100 µg/mL,> 100 µg/mL,25 µg/mL,50 µg/mL,100 µg/mL
CCn1cc(C(=O)O)c(=O)c2cc(F)c(/C=N/O)nc21,100 µg/mL,100 µg/mL,100 µg/mL,12.5 µg/mL,6.3 µg/mL,> 100 µg/mL,50 µg/mL
CCn1cc(C(=O)O)c(=O)c2cc(F)c(N3CCN(CC#N)CC3)cc21,1.6 µg/mL,6.3 µg/mL,6.3 µg/mL,0.8 µg/mL,0.4 µg/mL,0.8 µg/mL,10 µg/mL
CCn1cc(C(=O)O)c(=O)c2cc(F)c(N3CCSCC3)nc21,0.2 µg/mL,6.3 µg/mL,50 µg/mL,3.1 µg/mL,1.6 µg/mL,1.6 µg/mL,18 µg/mL
CCn1cc(C(=O)O)c(=O)c2cc(N)c(C)nc21,50 µg/mL,> 100 µg/mL,50 µg/mL,> 100 µg/mL,> 100 µg/mL,100 µg/mL,> 100 µg/mL
CCn1cc(C(=O)O)c(=O)c2c(N)nc(N3CCNCC3)nc21,50 µg/mL,25 µg/mL,50 µg/mL,25 µg/mL,6.3 µg/mL,3.1 µg/mL,100 µg/mL
CCn1cc(C(=O)O)c(=O)c2cc(F)c(/C=N/N3CCN(C)CC3)nc21,25 µg/mL,> 100 µg/mL,100 µg/mL,25 µg/mL,25 µg/mL,50 µg/mL,100 µg/mL
CCn1cc(C(=O)O)c(=O)c2cc(F)c(N3CCN(C(C)=N)CC3)nc21,50 µg/mL,25 µg/mL,50 µg/mL,6.3 µg/mL,3.1 µg/mL,0.8 µg/mL,6.3 µg/mL
CCn1cc(C(=O)O)c(=O)c2ccc(N3CCNCC3)nc21,50 µg/mL,12.5 µg/mL,50 µg/mL,12.5 µg/mL,6.3 µg/mL,3.1 µg/mL,75 µg/mL
CCn1cc(C(=O)O)c(=O)c2cc([N+](=O)[O-])ccc21,> 100 µg/mL,> 100 µg/mL,100 µg/mL,12.5 µg/mL,12.5 µg/mL,50 µg/mL,> 100 µg/mL
CCn1cc(C(=O)O)c(=O)c2cc(F)c(N3CCN(CCCN(C)C)CC3)cc21,12.5 µg/mL,12.5 µg/mL,25 µg/mL,6.3 µg/mL,6.3 µg/mL,3.1 µg/mL,50 µg/mL
CCn1cc(C(=O)O)c(=O)c2cc(F)c(C)nc21,25 µg/mL,50 µg/mL,> 100 µg/mL,6.3 µg/mL,3.1 µg/mL,3.1 µg/mL,25 µg/mL
CCn1cc(C(=O)O)c(=O)c2cc(F)c(N3CCN(C)CC3)c(F)c21,0.4 µg/mL,0.8 µg/mL,3.1 µg/mL,0.4 µg/mL,0.2 µg/mL,0.1 µg/mL,2.5 µg/mL
CCn1cc(C(=O)O)c(=O)c2ccc(N3CCNCC3)cc21,> 50 µg/mL,25 µg/mL,50 µg/mL,6.3 µg/mL,6.3 µg/mL,6.3 µg/mL,18 µg/mL
CCn1cc(C(=O)O)c(=O)c2cc(F)c(Cl)cc21,3.1 µg/mL,50 µg/mL,100 µg/mL,1.6 µg/mL,0.8 µg/mL,1.6 µg/mL,38 µg/mL
